# From paper PMC10920834, “Synthesis, anticancer activity, and molecular docking of half-sandwich iron(II) cyclopentadienyl complexes with maleimide and phosphine or phosphite ligands” (Scientific Reports, 2024)
# Read-outs that look alike come from different tables or passages of the source.
# Key:
# PBM cells [1] = assay: Cell viability resazurin assay, PBM cells; type: cell-based, human; conditions: for viability of PBM cells relative to control: ± SD
# Description: Peripheral blood mononuclear (PBM) cells were isolated from a leukocyte-buffy coat collected from the blood of healthy, non-smoking donors at the Blood Bank in Lodz, Poland. The study protocol received approval from the Committee for Research on Human Subjects of the University of Lodz (17/KBBN-UŁ/III/2019). The initial step of isolation process involved mixing buffy coats with PBS in a 1:1 ratio. Subsequently, the mixture was centrifuged using a density gradient of Lymphosep (Cytogen, Zgierz, Poland) at 2200 RPM for 20 min, employing the lowest values for acceleration and deceleration. PBM cells were collected and washed three times by centrifugation with 1 × PBS. Following isolation, the cells were suspended in RPMI 1640 medium.
# (§1) Firstly, resazurin salt powder was dissolved in sterile 1 × PBS. Cells were then seeded on the 96-well plates in the count of 1 × 10^4 in the case of HL-60 cells and of 5 × 10^4 for PBM cells and of 5 × 10^3 for A549 cells per well. A549 cells were seeded 24 h prior to treatment with the complexes to allow cell adherence to 96-well plate. Iron(II) complexes were added to wells to obtain final concentrations of 0.5, 1, 2.5, 5, 10, 25, 50, 100 and 250 μM. Subsequently, plates were incubated at 37 °C in 5% CO2 for 2 h and 24 h. After that 10 μl of resazurin salt was added to each well and plates again were incubated in 37 °C in 5% CO2 for 2 h. Finally, fluorescence was measured with microplate reader Synergy HT (Bio-Tek Instruments, USA) using an excitation wavelength of 530/25 and an emission wavelength of 590/35 nm. The effects of iron(II) complexes were calculated as the percentage of control fluorescence. IC50 (half maximal inhibitory concentration) values were calculated using a website algorithm (https://www.aatbio.com/tools/ic50-calculator). All assays were performed in octuplicate.
# HL-60 cells [2] = assay: Cell viability resazurin assay, HL-60 cells; type: cell-based, human; conditions: for viability of HL-60 cells relative to control: ± SD
# Procedure: (§2) The A549 (human non-small cell lung cancer) cell line was obtained from the American Type Culture Collection (ATCC) and cultured in Dulbecco's Modified Eagle Medium (DMEM) with 10% fetal bovine serum (FBS), 2 mM L-Glutamine, 25 mM HEPES and penicillin/streptomycin solution (100 U/ml and 100 µg/ml, respectively). The HL-60 (human promyelocytic leukemia) cell line was also obtained from the American Type Culture Collection (ATCC) and cultured in Iscove’s Modified Dulbecco's Medium (IMDM) with 15% fetal bovine serum (FBS), 2 mM L-Glutamine, 25 mM HEPES and penicillin/streptomycin solution (100 U/ml and 100 µg/ml, respectively). Both cell lines were cultured in flasks at 37 °C in 5% CO2 and sub-cultured every 2–3 days to maintain exponential growth.
# as §1
# A549 cells [3] = assay: Cell viability resazurin assay, A549 cells; type: cell-based, human; conditions: for viability of A549 cells relative to control: ± SD
# Procedure: as §2, §1
# HL-60 cells [4] = assay: Alkaline comet assay, HL-60 cells; type: cell-based, human
# Procedure: (§3) Selected iron(II) complexes were added to the suspension of the cells to give final concentrations of 1, 5, 10, 25 and 50 μM. HL-60 and A549 cells were incubated with the complexes for 2 h at 37 °C. The comet assay was performed under alkaline conditions according to the procedure of Tokarz et al.[45]. […] Next, the cells were lysed for 1 h at 4 °C in a buffer containing 2.5 M NaCl, 0.1 M EDTA, 10 mM Tris, 1% Triton X-100, pH 10. Following the lysis, the slides were placed in an electrophoresis unit. DNA was allowed to unwind for 20 min in the solution containing 300 mM NaOH and 1 mM EDTA, pH > 13. […] After separation, the slides were washed in water, drained, stained with 2 μg/ml DAPI and covered with cover slips. As a prevention from additional DNA damage, the procedure described above was conducted under limited light or in the dark. Each experiment included the positive control—cells incubated with H2O2 at 20 µM for 15 min on ice (data not shown).
# (§4) The comets obtained after single cell gel electrophoresis were analysed in the following manner. […] Hundred images of singular comets were randomly selected from each sample and the mean value of DNA in comet tail was taken as an index of DNA damage (expressed in percent).
# A549 cells [5] = assay: Alkaline comet assay, A549 cells; type: cell-based, human; conditions: 2 h, 50 μM
# Procedure: as §3, §4
# [6] = system: Genomic DNA isolated from A549 cell line; assay: DNA titration (UV-Vis absorption spectra); type: binding, human; conditions: 0.5, 5 and 50 µM, 15 min, room temp.
# Procedure: Genomic DNA was isolated from A549 cell line using a commercially available kit (Extractme Genomic DNA Kit, Blirt, Gdansk, Poland) following the manufacturer’s protocol. The concentration and purity of DNA were measured by BioTek Synergy HT Microplate Reader (BioTek Instruments, Winooski, VT, USA). Genomic DNA in the amount of 20 µg was incubated with complex 2b for 15 min at room temp. at concentrations 0.5, 5, and 50 µM in a final volume of 2 ml. Next UV–Vis absorbance spectra (240–300 nm) was measured by UV–Vis JASCO V-630 spectrophotometer (JASCO, Japan).
# [7] = system: doxorubicin-sensitive cells (Colo205); design: method as in PMID 37187089; conditions: cited from earlier work
# [8] = system: doxorubicin-resistant (Colo320) cells; design: method as in PMID 37187089; conditions: cited from earlier work
# PBM cells [9] = conditions: cited from earlier work; for IC50: studied previously, read-out: IC50 PBM cells (ruthenium analogues)
# HL-60 cells [10] = system: HL-60 cells; design: method as in PMID 26486993; conditions: studied previously; read-out: IC50 HL-60 cells (ruthenium analogues); cited from earlier work
compound,measurement,setting,value
"O=C1C=CC(=O)[N-]1.[C-]#[O+].[Fe+2].c1cc[cH-]c1.c1coc(P(c2ccco2)c2ccco2)c1 [2b, CpFe(CO)(P(Fu)3)(η^1-N-maleimidato)]",viability of PBM cells relative to control,"PBM cells [1]; 2 h incubation, 0.5 µM",98.07 ± 0.32%
same,viability of PBM cells relative to control,"PBM cells [1]; 2 h incubation, 1 µM",97.62 ± 0.66%
same,viability of PBM cells relative to control,"PBM cells [1]; 2 h incubation, 2.5 µM",96.06 ± 2.38%
same,viability of PBM cells relative to control,"PBM cells [1]; 2 h incubation, 5 µM",97 ± 1.29%
same,viability of PBM cells relative to control,"PBM cells [1]; 2 h incubation, 10 µM",96.53 ± 1.24%
same,viability of PBM cells relative to control,"PBM cells [1]; 2 h incubation, 25 µM",93.16 ± 4.6%
same,viability of PBM cells relative to control,"PBM cells [1]; 2 h incubation, 50 µM",79.21 ± 1.4%
same,viability of PBM cells relative to control,"PBM cells [1]; 2 h incubation, 100 µM",78.49 ± 1.24%
same,viability of PBM cells relative to control,"PBM cells [1]; 2 h incubation, 250 µM",75.23 ± 0.62%
same,IC50,PBM cells [1]; 24 h incubation,> 250 µM
same,viability of PBM cells relative to control,"PBM cells [1]; 24 h incubation, 0.5 µM",105.37 ± 7.62%
same,viability of PBM cells relative to control,"PBM cells [1]; 24 h incubation, 1 µM",101.81 ± 0.86%
same,viability of PBM cells relative to control,"PBM cells [1]; 24 h incubation, 2.5 µM",97.1 ± 1.83%
same,viability of PBM cells relative to control,"PBM cells [1]; 24 h incubation, 5 µM",94.2 ± 4.56%
same,viability of PBM cells relative to control,"PBM cells [1]; 24 h incubation, 10 µM",94.94 ± 2.09%
same,viability of PBM cells relative to control,"PBM cells [1]; 24 h incubation, 25 µM",88.93 ± 2.18%
same,viability of PBM cells relative to control,"PBM cells [1]; 24 h incubation, 50 µM",85.34 ± 2.58%
same,viability of PBM cells relative to control,"PBM cells [1]; 24 h incubation, 100 µM",83.38 ± 3.4%
same,viability of PBM cells relative to control,"PBM cells [1]; 24 h incubation, 250 µM",77.59 ± 2.06%
same,viability of HL-60 cells relative to control,"HL-60 cells [2]; 2 h incubation, 0.5 µM",106.51 ± 2.33%
same,viability of HL-60 cells relative to control,"HL-60 cells [2]; 2 h incubation, 1 µM",106.74 ± 1.35%
same,viability of HL-60 cells relative to control,"HL-60 cells [2]; 2 h incubation, 2.5 µM",103.04 ± 1.98%
same,viability of HL-60 cells relative to control,"HL-60 cells [2]; 2 h incubation, 5 µM",104.72 ± 2.62%
same,viability of HL-60 cells relative to control,"HL-60 cells [2]; 2 h incubation, 10 µM",104.03 ± 2.08%
same,viability of HL-60 cells relative to control,"HL-60 cells [2]; 2 h incubation, 25 µM",95.86 ± 2.66%
same,viability of HL-60 cells relative to control,"HL-60 cells [2]; 2 h incubation, 50 µM",90.45 ± 0.98%
same,viability of HL-60 cells relative to control,"HL-60 cells [2]; 2 h incubation, 100 µM",76.15 ± 3.1%
same,viability of HL-60 cells relative to control,"HL-60 cells [2]; 2 h incubation, 250 µM",21.23 ± 1.56%
same,IC50,HL-60 cells [2]; 24 h incubation,10 µM
same,viability of HL-60 cells relative to control,"HL-60 cells [2]; 24 h incubation, 0.5 µM",107.57 ± 3.87%
same,viability of HL-60 cells relative to control,"HL-60 cells [2]; 24 h incubation, 1 µM",105.5 ± 3.13%
same,viability of HL-60 cells relative to control,"HL-60 cells [2]; 24 h incubation, 2.5 µM",97.63 ± 0.5%
same,viability of HL-60 cells relative to control,"HL-60 cells [2]; 24 h incubation, 5 µM",79.34 ± 1.21%
same,viability of HL-60 cells relative to control,"HL-60 cells [2]; 24 h incubation, 10 µM",51.6 ± 1.43%
same,viability of HL-60 cells relative to control,"HL-60 cells [2]; 24 h incubation, 25 µM",38.21 ± 0.22%
same,viability of HL-60 cells relative to control,"HL-60 cells [2]; 24 h incubation, 50 µM",35.8 ± 2.09%
same,viability of HL-60 cells relative to control,"HL-60 cells [2]; 24 h incubation, 100 µM",25.41 ± 1.92%
same,viability of HL-60 cells relative to control,"HL-60 cells [2]; 24 h incubation, 250 µM",17.52 ± 1.12%
same,viability of A549 cells relative to control,"A549 cells [3]; 2 h incubation, 0.5 µM",84.30 ± 11.24%
same,viability of A549 cells relative to control,"A549 cells [3]; 2 h incubation, 1 µM",80.74 ± 14%
same,viability of A549 cells relative to control,"A549 cells [3]; 2 h incubation, 2.5 µM",82.33 ± 9.73%
same,viability of A549 cells relative to control,"A549 cells [3]; 2 h incubation, 5 µM",83.32 ± 11.51%
same,viability of A549 cells relative to control,"A549 cells [3]; 2 h incubation, 10 µM",101.28 ± 15.65%
same,viability of A549 cells relative to control,"A549 cells [3]; 2 h incubation, 25 µM",114.98 ± 11.35%
same,viability of A549 cells relative to control,"A549 cells [3]; 2 h incubation, 50 µM",123.09 ± 7.89%
same,viability of A549 cells relative to control,"A549 cells [3]; 2 h incubation, 100 µM",84.95 ± 8.31%
same,viability of A549 cells relative to control,"A549 cells [3]; 2 h incubation, 250 µM",40.75 ± 4.24%
same,IC50,A549 cells [3]; 24 h incubation,73.5 µM
same,viability of A549 cells relative to control,"A549 cells [3]; 24 h incubation, 0.5 µM",81.57 ± 14.09%
same,viability of A549 cells relative to control,"A549 cells [3]; 24 h incubation, 1 µM",74.40 ± 19.47%
same,viability of A549 cells relative to control,"A549 cells [3]; 24 h incubation, 2.5 µM",73.54 ± 23.46%
same,viability of A549 cells relative to control,"A549 cells [3]; 24 h incubation, 5 µM",61.87 ± 14.65%
same,viability of A549 cells relative to control,"A549 cells [3]; 24 h incubation, 10 µM",87.91 ± 9.79%
same,viability of A549 cells relative to control,"A549 cells [3]; 24 h incubation, 25 µM",110.30 ± 11.49%
same,viability of A549 cells relative to control,"A549 cells [3]; 24 h incubation, 50 µM",91.31 ± 16.37%
same,viability of A549 cells relative to control,"A549 cells [3]; 24 h incubation, 100 µM",13.33 ± 3.51%
same,viability of A549 cells relative to control,"A549 cells [3]; 24 h incubation, 250 µM",1.39 ± 0.12%
same,"DNA damage in HL-60 cells (alkaline comet assay), in words","HL-60 cells [4]; 2 h incubation, 1-50 μM tested",induced DNA damage
same,DNA in tail (alkaline comet assay),"HL-60 cells [4]; HL-60 cells, 2 h, 50 μM",6%
same,percentage of DNA damage in tail (alkaline comet assay),A549 cells [5],about 2%
same,interaction with DNA (UV-Vis spectroscopic titration),[6],does not interact in an intercalative manner with DNA
O=S(=O)([O-])C(F)(F)F.[C-]#[O+].[Fe+2].c1cc[cH-]c1.c1ccc(Cn2ccnc2)cc1.c1ccc(P(c2ccccc2)c2ccccc2)cc1 [[CpFe(CO)(PPh3) (1-benzylimidazole)](CF3SO3)],IC50,[7],1.26 ± 0.11 µM
same,IC50,[8],2.21 ± 0.26 µM
"O=C1C=CC(=O)[N-]1.[C-]#[O+].[Ru+2].c1cc[cH-]c1.c1ccc(P(c2ccccc2)c2ccccc2)cc1 [ruthenium complex 2b, CpRu(CO)(PPh3) (η^1-N-maleimidato)]","cytotoxicity toward PBM cells of ruthenium analogues, in words",PBM cells [9]; listed as 2b-Ru,cytotoxic
same,IC50,PBM cells [9],8.48 µM
same,IC50,HL-60 cells [10],35.6 µM
"CCOP(OCC)OCC.O=C1C=CC(=O)[N-]1.[C-]#[O+].[Ru+2].c1cc[cH-]c1 [ruthenium(II) complex 3a, CpRu(CO)(P(OEt)3)(η^1-N-maleimidato)]",IC50,PBM cells [9],> 250 µM
same,IC50,HL-60 cells [10],12.2 µM
